Measured values taken from PMC6159918 (Peptides, 2018).
Like-named read-outs stand apart in the source and are kept apart here.

Experiments:
NMBR [1] = molecular target: NMBR (Homo sapiens, UniProt P28336); experiment: [3H]IP production, NMBR agonist/antagonist; assay type: cell-based; details: Peptide #1 (10 nM) + PD 1 μM; NCI-H727 (carcinoid); control 143 ± 21
NMBR [2] = experiment: [3H]IP production, NMBR agonist/antagonist; assay type: cell-based, human
human BRS-3-receptor [3] = molecular target: T1, human BRS-3-receptor (Homo sapiens, UniProt P32247); experiment: [3H]-inositol phosphates; assay type: cell-based; details: for decrease in [3H]IP-production stimulated by MK-5046 / inhibition of [3H]IP-production caused by peptide #1: Bantag-1 100 nM; for decrease in [3H]IP-production stimulated by MK-5046: MK-5046 10 nM; for inhibition of [3H]IP-production caused by peptide #1: peptide #1 10 nM
T1 sequence (P32247 1-399): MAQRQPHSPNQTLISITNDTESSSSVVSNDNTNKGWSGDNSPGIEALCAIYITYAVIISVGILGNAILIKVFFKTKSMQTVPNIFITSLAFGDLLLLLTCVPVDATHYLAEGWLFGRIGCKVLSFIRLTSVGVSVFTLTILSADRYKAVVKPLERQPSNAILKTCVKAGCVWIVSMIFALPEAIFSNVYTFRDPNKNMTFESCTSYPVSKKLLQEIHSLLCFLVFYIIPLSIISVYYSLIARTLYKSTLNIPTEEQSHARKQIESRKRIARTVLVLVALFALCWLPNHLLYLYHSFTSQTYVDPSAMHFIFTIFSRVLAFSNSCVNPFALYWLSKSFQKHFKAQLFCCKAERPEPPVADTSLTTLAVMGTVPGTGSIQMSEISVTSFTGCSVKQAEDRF

human BRS-3-receptor [4] = molecular target: T1, human BRS-3-receptor; experiment: Cytosolic Ca2+; assay type: cell-based
GRPR = assay type: cell-based, human

NMBR (Homo sapiens, UniProt P28336), sequence (P28336 whole entry): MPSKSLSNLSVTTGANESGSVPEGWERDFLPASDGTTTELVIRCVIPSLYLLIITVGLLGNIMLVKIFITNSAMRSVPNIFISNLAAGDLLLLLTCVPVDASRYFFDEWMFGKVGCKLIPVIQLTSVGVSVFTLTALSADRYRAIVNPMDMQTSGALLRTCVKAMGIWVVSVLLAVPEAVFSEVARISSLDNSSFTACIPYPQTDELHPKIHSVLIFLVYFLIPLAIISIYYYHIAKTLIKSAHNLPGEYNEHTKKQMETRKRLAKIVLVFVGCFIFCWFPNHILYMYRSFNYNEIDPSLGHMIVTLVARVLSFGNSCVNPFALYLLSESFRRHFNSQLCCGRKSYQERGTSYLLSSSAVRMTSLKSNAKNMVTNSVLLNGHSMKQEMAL

For `C[C@@](Cc1c[nH]c2ccccc12)(NC(=O)Nc1ccc([N+](=O)[O-])cc1)C(=O)NCC1(c2ccccn2)CCCCC1` [PD168368], the “[3H]IP (DPM)” value (NMBR [1]) was 157 ± 48 DPM, the “[3H]IP (DPM)” value (NMBR [2]; Peptide #1 (10 nM) + PD 1 μM, Balb-3T3 BRS-3 transfected, control 2487 ± 185) was 15006 ± 769 DPM and the “[3H]IP (DPM)” value (NMBR [2]; Peptide #1 (10 nM) + PD 1 μM, NCI-H69 (SCLC), control 177 ± 27) was 471 ± 121 DPM. The “[3H]IP (DPM)” value (NMBR [2]; Peptide #1 (10 nM) + PD 1 μM, NCI-N417 (SCLC), control 660 ± 87) was 2176 ± 518 DPM.

With neuromedin B [NMB] the “[3H]IP (DPM)” value (NMBR [2]; NMB 100 nM, Balb-3T3 BRS-3 transfected, control 2487 ± 185) was 2697 ± 720 DPM, the “[3H]IP (DPM)” value (NMBR [2]; NMB 100 nM, NCI-H69 (SCLC), control 177 ± 27) was 186 ± 20 DPM and the “[3H]IP (DPM)” value (NMBR [2]; NMB 100 nM, NCI-N417 (SCLC), control 660 ± 87) was 706 ± 132 DPM. For the same molecule, the “[3H]IP (DPM)” value (NMBR [2]; NMB 1 μM, Balb-3T3 BRS-3 transfected, control 2487 ± 185) was 2652 ± 838 DPM, the “[3H]IP (DPM)” value (NMBR [2]; NMB 1 μM, NCI-H69 (SCLC), control 177 ± 27) was 187 ± 37 DPM and the “[3H]IP (DPM)” value (NMBR [2]; NMB 1 μM, NCI-N417 (SCLC), control 660 ± 87) was 707 ± 137 DPM. The “PLC activation in 4 cell-lines (NCI-H69, NCI-N417, NCI-H727, BRS-3/Balb)” value (NMBR [2]; NMB at 10 nM and 100 nM) was “activated PLC only in NCI-H727-cells”.

“Boc-Phe-His-4-amino-5-cyclohexyl-2, 4, 5-trideoxypentonyl-Leu- (3-dimethylamino)benzyl amide-N-methyl ammonium trifluoroacetate [Bantag-1]” was tested, and the “decrease in [3H]IP-production stimulated by MK-5046” value (from here on “decrease”) (human BRS-3-receptor [3]; BRS-3/Balb-cells) was 93%, the “decrease” value (human BRS-3-receptor [3]; NCI-H69) was 81% and the “decrease” value (human BRS-3-receptor [3]; NCI-H727) was 75%. For the same molecule, the “decrease” value (human BRS-3-receptor [3]; NCI-N417) was 99%, the “inhibition of [3H]IP-production caused by peptide #1” value (shortened to “inhibition … by peptide #1”) (human BRS-3-receptor [3]; BRS-3/Balb-cells) was 82% and the “inhibition … by peptide #1” value (human BRS-3-receptor [3]; NCI-H69-cells) was 83%. For the same molecule, the “inhibition … by peptide #1” value (human BRS-3-receptor [3]; NCI-N417-cells) was 68%, the “[3H]IP (DPM)” value (human BRS-3-receptor [3]; MK-5046 10 nM + Bantag 100 nM, Balb-3T3 BRS-3 transfected, control 2487 ± 185) was 3697 ± 1064 DPM and the “[3H]IP (DPM)” value (human BRS-3-receptor [3]; MK-5046 10 nM + Bantag 100 nM, NCI-H69 (SCLC), control 177 ± 27) was 256 ± 56 DPM. For the same molecule, the “[3H]IP (DPM)” value (human BRS-3-receptor [3]; MK-5046 10 nM + Bantag 100 nM, NCI-H727 (carcinoid), control 143 ± 21) was 215 ± 25 DPM, the “[3H]IP (DPM)” value (human BRS-3-receptor [3]; MK-5046 10 nM + Bantag 100 nM, NCI-N417 (SCLC), control 660 ± 87) was 678 ± 82 DPM and the “[3H]IP (DPM)” value (human BRS-3-receptor [3]; Peptide #1 (10 nM) + Bantag 100 nM, NCI-H69 (SCLC), control 177 ± 27) was 265 ± 35 DPM. For the same molecule, the “[3H]IP (DPM)” value (human BRS-3-receptor [3]; Peptide #1 (10 nM) + Bantag 100 nM, NCI-H727 (carcinoid), control 143 ± 21) was 176 ± 27 DPM, the “[3H]IP (DPM)” value (human BRS-3-receptor [3]; Peptide #1 (10 nM) + Bantag 100 nM, NCI-N417 (SCLC), control 660 ± 87) was 1125 ± 154 DPM and the “inhibition of MK-5046 stimulated increases in cytosolic calcium” value (human BRS-3-receptor [4]; Bantag-1 1000 nM, two cell lines (NCI-H727, H782)) was “completely inhibited”. The “inhibition of MK-5046 stimulation of increases in (Ca2+)i” value (human BRS-3-receptor [4]; NCI-82, NCI-H460 and NCI-H727 cells) was “inhibited”.

In the case of [D-Phe^6]Bombesin-(6–13)-methyl ester, the “[3H]IP (DPM)” value (GRPR; Peptide #1 (10 nM) + ME 1 μM, Balb-3T3 BRS-3 transfected, control 2487 ± 185) is reported as 16107 ± 100 DPM and the “[3H]IP (DPM)” value (GRPR; Peptide #1 (10 nM) + ME 1 μM, NCI-N417 (SCLC), control 660 ± 87) is reported as 2513 ± 662 DPM.

With gastrin-releasing peptide [GRP] the “[3H]IP (DPM)” value (GRPR; GRP 100 nM, Balb-3T3 BRS-3 transfected, control 2487 ± 185) was 2519 ± 744 DPM, the “[3H]IP (DPM)” value (GRPR; GRP 100 nM, NCI-N417 (SCLC), control 660 ± 87) was 881 ± 204 DPM and the “[3H]IP (DPM)” value (GRPR; GRP 1 μM, NCI-N417 (SCLC), control 660 ± 87) was 724 ± 138 DPM. The “PLC activation in 4 cell-lines (NCI-H69, NCI-N417, NCI-H727, BRS-3/Balb)” value (GRPR; GRP at 10 nM and 100 nM) was “activated PLC only in NCI-H727-cells”.

“[D-Tyr^6, β-Ala^11, Phe^13, Nle^14]Bn- (6–14) [Peptide #1]” was tested, and the “[3H]IP (DPM)” value (human BRS-3-receptor [3]; Peptide #1 10 nM, Balb-3T3 BRS-3 transfected, control 2487 ± 185) was 16341 ± 1071 DPM, the “[3H]IP (DPM)” value (human BRS-3-receptor [3]; Peptide #1 10 nM, NCI-H69 (SCLC), control 177 ± 27) was 680 ± 73 DPM and the “[3H]IP (DPM)” value (human BRS-3-receptor [3]; Peptide #1 10 nM, NCI-H727 (carcinoid), control 143 ± 21) was 235 ± 25 DPM. For the same molecule, the “[3H]IP (DPM)” value (human BRS-3-receptor [3]; Peptide #1 10 nM, NCI-N417 (SCLC), control 660 ± 87) was 2131 ± 244 DPM.
